In ChEMBL document CHEMBL6103570, “An endoplasmic reticulum and lipid droplets dual-localized strategy to develop small molecular photosensitizers that induce ferroptosis during photodynamic therapy” (Eur J Med Chem, 2025):
Activity calls are given as the source filed them. The calls are words filed in the database; no cut-off is given here.

Key:
[1] = Drug localization in Lipid droplet of mouse 4T1 cells assessed as increase in green fluorescence by measuring pearson correlation coefficient at 2 uM incubated for 12 hrs by confocal scanning microscopy analysis; type: ADME, subcellular; details: 4t1, 12 h
4T1 [2] = assay: Induction of ferroptosis in mouse 4T1 cells assessed as cell viability at 30 nM preincubated for 24 hrs followed by white light irradiation at 20 mW/cm2 and measured after 24 hrs in presence of Z-VAD-FMK by MTT assay; type: functional, cell-based; details: time 48.0 hrs
[3] = Darktoxicity in human MDA-MB-231 cells assessed as cell viability preincubated for 24 hrs followed by incubation under dark condition for 24 hrs by MTT assay; type: toxicity, cell-based; details: time 48 hrs
[4] = (§1) Photo selectivity index, ratio of CC50 for darktoxicity in human Bcap37 cells assessed as cell viability preincubated for 24 hrs followed by incubation under dark condition for 24 hrs by MTT assay to IC50 for phototoxicity in human Bcap37 cells assessed as cell viability preincubated for 24 hrs followed by white light irradiation at 20 mW/cm2 for 10 mins and measured after 24 hrs by MTT assay; type: toxicity, cell-based; details: read-out: Ratio CC50/IC50
[5] = Photosensitizing ability of the compound in NaOH assessed as fluorescence quantum yield; type: functional
MDA-MB-231 [6] = assay: Upregulation of Chac1 mRNA expression in human MDA-MB-231 cells at 10 nM preincubated for 24 hrs followed by […] white light irradiation for 10 mins and measured after 12 hrs by qRT-PCR analysis; type: functional, cell-based; details: time 2170.0 min
MDA-MB-231 [7] = assay: Upregulation of Hmox1 mRNA expression in human MDA-MB-231 cells at 10 nM preincubated for 24 hrs followed by […] white light irradiation for 10 mins and measured after 12 hrs by qRT-PCR analysis; type: functional, cell-based; details: time 2170.0 min
[8] = as §1, with “mouse 4T1” for “human Bcap37”; type: toxicity, cell-based; details: read-out: Ratio CC50/IC50
4T1 [9] = assay: Induction of ferroptosis in mouse 4T1 cells assessed as increase in intracellular lipid peroxidation accumulation by measuring increase in green fluorescence at 30 nM preincubated for 24 hrs followed by 30 mW/cm2 green light irradiation for 4 mins by C11 BODIPY 581/591 staining based analysis; type: functional, cell-based; details: time 1444.0 min
4T1 [10] = assay: Upregulation of Chac1 mRNA expression in mouse 4T1 cells at 10 nM preincubated for 24 hrs followed by […] white light irradiation for 10 mins and measured after 12 hrs by qRT-PCR analysis; type: functional, cell-based; details: time 2170.0 min
[11] = Photosensitizing ability of the compound in EtOH assessed as singlet oxygen quantum yield at 100 nM under 520nm 30 mW/cm2 light irradiation by DPBF reagent based analysis; type: functional
4T1 [12] = assay: Upregulation of Hmox1 mRNA expression in mouse 4T1 cells at 10 nM preincubated for 24 hrs followed by […] white light irradiation for 10 mins and measured after 12 hrs by qRT-PCR analysis; type: functional, cell-based; details: time 2170.0 min
4T1 [13] = assay: Induction of ferroptosis in mouse 4T1 cells assessed as increase in intracellular lipid peroxidation accumulation by measuring increase in green fluorescence at 30 nM incubated under dark condition for 24 hrs by C11 BODIPY 581/591 staining based analysis; type: functional, cell-based
4T1 [14] = assay: Induction of ferroptosis in mouse 4T1 cells assessed as cell viability at 30 nM preincubated for 24 hrs followed by white light irradiation at 20 mW/cm2 and measured after 24 hrs in presence of Fer-1 by MTT assay; type: functional, cell-based; details: time 48.0 hrs
[15] = as §1, with “MDA-MB-231” for “Bcap37”; type: toxicity, cell-based; details: read-out: Ratio CC50/IC50
[16] = Phototoxicity in human Bcap37 cells assessed as cell viability preincubated for 24 hrs followed by white light irradiation at 20 mW/cm2 for 10 mins and measured after 24 hrs by MTT assay; type: functional, cell-based; details: Bcap37, light or radiation study
[17] = Phototoxicity in human MCF7 cells assessed as cell viability preincubated for 24 hrs followed by white light irradiation at 20 mW/cm2 for 10 mins and measured after 24 hrs by MTT assay; type: functional, cell-based; details: MCF7, light or radiation study
4T1 [18] = assay: Induction of intracellular ROS generation in mouse 4T1 cells assessed as increase in green fluorescence intensity at 5 to 60 nM incubated in dark for 24 hrs followed by compound removal and measured after 5 mins under 20 mW/cm2H2 white light irradiation in presence of NaN3 by H2-DCFDA staining based fluorescence assay; type: functional, cell-based; details: dose 5-60 nM
4T1 [19] = assay: Upregulation of Chac1 mRNA expression in mouse 4T1 cells at 10 nM under light irradiation by KEGG analysis; type: functional, cell-based
4T1 [20] = assay: Induction of ferroptosis in mouse 4T1 cells assessed as increase in MDA level at 15 nM preincubated in dark condition for 24 hrs followed by 20mW/cm2 white light irradiation for 10 mins and measured after 6 hrs by colorimetric assay; type: functional, cell-based; details: time 1810.0 min
[21] = Drug localization in endoplasmic reticulum of mouse 4T1 cells assessed as increase in green fluorescence at 2 uM incubated for 12 hrs by confocal scanning microscopy analysis; type: ADME, subcellular; details: 4t1, 12 h
[22] = Darktoxicity in human Bcap37 cells assessed as cell viability preincubated for 24 hrs followed by incubation under dark condition for 24 hrs by MTT assay; type: toxicity, cell-based; details: time 48 hrs
[23] = Drug localization in Lipid droplet of mouse 4T1 cells assessed as increase in green fluorescence at 2 uM incubated for 12 hrs by confocal scanning microscopy analysis; type: ADME, subcellular; details: 4t1, 12 h
4T1 [24] = assay: Induction of ferroptosis in mouse 4T1 cells assessed as cell viability at 30 nM preincubated for 24 hrs followed by white light irradiation at 20 mW/cm2 and measured after 24 hrs in presence of 3-MA by MTT assay; type: functional, cell-based; details: time 48.0 hrs
[25] = as §1, with “MCF7” for “Bcap37”; type: toxicity, cell-based; details: read-out: Ratio CC50/IC50
4T1 [26] = assay: Upregulation of Hmox1 mRNA expression in mouse 4T1 cells at 10 nM under light irradiation by KEGG analysis; type: functional, cell-based
[27] = Potency index, ratio of IC50 for Chlorin e6 to IC50 for test compound for phototoxicity in human MDA-MB-231 cells assessed as cell viability preincubated for 24 hrs followed by white light irradiation at 20 mW/cm2 for 10 mins and measured after 24 hrs by MTT assay; type: functional; details: time 48 hrs
[28] = Phototoxicity in human MDA-MB-231 cells assessed as cell viability preincubated for 24 hrs followed by white light irradiation at 20 mW/cm2 for 10 mins and measured after 24 hrs by MTT assay; type: functional, cell-based; details: MDA-MB-231, light or radiation study
4T1 [29] = assay: Upregulation of Acsl4 mRNA expression in mouse 4T1 cells at 10 nM under light irradiation by KEGG analysis; type: functional, cell-based
4T1 [30] = assay: Induction of intracellular ROS generation in mouse 4T1 cells assessed as increase in green fluorescence intensity at 5 to 60 nM incubated in dark for 24 hrs followed by compound removal and measured after 5 mins under 20 mW/cm2H2 white light irradiation by H2-DCFDA staining based fluorescence assay; type: functional, cell-based; details: dose 5-60 nM
4T1 [31] = assay: Induction of ferroptosis in mouse 4T1 cells assessed as decrease in intracellular GSH level at 15 nM preincubated in dark condition for 24 hrs followed by 20mW/cm2 white light irradiation for 10 mins and measured after 12 hrs by colorimetric assay; type: functional, cell-based; details: time 2170.0 min
[32] = Phototoxicity in mouse 4T1 cells assessed as cell viability preincubated for 24 hrs followed by white light irradiation at 20 mW/cm2 for 10 mins and measured after 24 hrs by MTT assay; type: functional, cell-based; details: 4T1, light or radiation study
4T1 [33] = assay: Upregulation of […] mRNA expression in mouse 4T1 cells at 10 nM preincubated for 24 hrs followed by […] white light irradiation for 10 mins and measured after 12 hrs by qRT-PCR analysis; type: functional, cell-based; details: time 2170.0 min
[34] = Darktoxicity in human MCF7 cells assessed as cell viability preincubated for 24 hrs followed by incubation under dark condition for 24 hrs by MTT assay; type: toxicity, cell-based; details: time 48 hrs
MDA-MB-231 [35] = assay: Upregulation of Acsl4 mRNA expression in human MDA-MB-231 cells at 10 nM preincubated for 24 hrs followed by […] white light irradiation for 10 mins and measured after 12 hrs by qRT-PCR analysis; type: functional, cell-based; details: time 2170.0 min
4T1 [36] = assay: Induction of ferroptosis in mouse 4T1 cells assessed as cell viability at 30 nM preincubated for 24 hrs followed by white light irradiation at 20 mW/cm2 and measured after 24 hrs in presence of Nec-1 by MTT assay; type: functional, cell-based; details: time 48.0 hrs

Activity [1]: 0.84 | Drug uptake [21]: Active | Drug uptake [23]: Active
Compound: CC1=C(I)C(C)=[N+]2C1=C(c1nccc3c1[nH]c1ccccc13)c1c(C)c(I)c(C)n1[B-]2(F)F
Activity (4T1 [2]): inactive | CC50 at 24 h [3]: 27600 nM | selectivity ratio [4]: > 3880 | Activity [5]: 0.19 | Activity (MDA-MB-231 [6]): Active | Activity (MDA-MB-231 [7]): Active | selectivity ratio [8]: 18 | Activity (4T1 [9]): Active | Activity (4T1 [10]): Active | Activity [11]: 0.73 | Activity (4T1 [12]): Active | Activity (4T1 [13]): inactive | Activity (4T1 [14]): Active | selectivity ratio [15]: 835 | IC50 [16]: 26 nM | IC50 [17]: 41 nM | Activity (4T1 [18]): inactive | Activity (4T1 [19]): Active | Activity (4T1 [20]): Active | CC50 at 24 h [22]: > 100000 nM | Activity (4T1 [24]): inactive | selectivity ratio [25]: > 2430 | Activity (4T1 [26]): Active | Ratio IC50 [27]: 38 | IC50 [28]: 33 nM | Activity (4T1 [29]): Active | Activity (4T1 [30]): Active | Activity (4T1 [31]): Active | IC50 [32]: 23 nM | Activity (4T1 [33]): Active | CC50 at 24 h [34]: > 100000 nM | Activity (MDA-MB-231 [35]): Active | Activity (4T1 [36]): inactive
